According to patent publication US10765114B2, “4-amino-6-(pyridyl and 2-substitutedphenyl)-picolinates and 6-amino-2-(pyridyl and 2-substitutedphenyl)-pyrimidine-4-carboxylates and their use as herbicides” (Dow AgroSciences LLC, priority 2013, dated 2020):

Key:
Test in all cases: Postemergence Herbicidal Activity in Direct Seeded Rice
Type in all cases: in vivo
[1] = tested on: CYPSS: sedge including small-flower flatsedge (Cyperus difformis), yellow nutsedge (Cyperus esculentus), rice flatsedge (Cyperus iria); details: for Visual Growth Reduction (%) 21 Days After Application, CYPSS: postemergence, direct seeded rice; for GR50, CYPSS: Growth reduction of 50% of plant growth; for GR50, CYPSS / GR80, CYPSS: probit analysis; for GR80, CYPSS: Growth reduction of 80% of plant growth
Text: (§1) Seeds or nutlets of the desired test plant species were planted in a soil matrix prepared by mixing a loam soil (43 percent silt, 19 percent clay, and 38 percent sand, with a pH of about 8.1 and an organic matter content of about 1.5 percent) and river sand in an 80 to 20 ratio. The soil matrix was contained in plastic pots with a surface area of 139.7 cm^2. When required to ensure good germination and healthy plants, a fungicide treatment and/or other chemical or physical treatment was applied. The plants were grown for 10-17 days in a greenhouse with an approximate 14-h photoperiod which was maintained at about 29° C. during the day and 26° C. during the night. Nutrients and water were added on a regular basis and supplemental lighting was provided with overhead metal halide 1000-Watt lamps as necessary. The plants were employed for testing when they reached the second or third true leaf stage.
(§2) A weighed amount, determined by the highest rate to be tested, of each test compound was placed in 25 mL glass vials and dissolved in a volume of 97:3 v/v acetone-DMSO to obtain 12× stock solutions. […] The concentrated stock solutions were added to the spray solutions so that the final acetone and DMSO concentrations were 16.2% and 0.5%, respectively. Spray solutions were diluted to the appropriate final concentrations with the addition of 10 mL of an aqueous mixture of 1.5% (v/v) Agri-dex crop oil concentrate. The final spray solutions contained 1.25% (v/v) Agri-dex crop oil concentrate. Compound requirements are based upon a 12 mL application volume at a rate of 187 L/ha. Formulated compounds were applied to the plant material with an overhead Mandel track sprayer equipped with 8002E nozzles calibrated to deliver 187 L/ha over an application area of 0.503 square meters (m^2) at a spray height of 18 inches (43 cm) above average plant canopy height. Control plants were sprayed in the same manner with the solvent blank.
(§3) The treated plants and control plants were placed in a greenhouse as described above and watered by sub-irrigation to prevent wash-off of the test compounds. After 20-22 days, the condition of the test plants, compared with that of the untreated plants, was determined visually and scored on a scale of 0 to 100 percent where 0 corresponds to no injury and 100 corresponds to complete kill and presented as indicated in Table A.
(§4) By applying the well-accepted probit analysis as described by J. Berkson in Journal of the American Statistical Society, 48, 565 (1953) and by D. Finney in “Probit Analysis” Cambridge University Press (1952), herbicidal injury of a specific compound at various rates can be used to calculate GR20, GR50, GR80 and GR90 values, which are defined as growth reduction factors that correspond to the effective dose of herbicide required to provide plant growth reduction (GR) of 20 percent, 50 percent, 80 percent and 90 percent, respectively. Probit analysis was applied to data collected from multiple dose rates of individual compounds utilizing the procedures explained in the following examples. The analysis of those dose rates is captured in the following tables

[2] = tested on: BRAPP: broadleaf signalgrass, Brachiaria platyphylla; details: for Visual Growth Reduction (%) 21 Days After Application, BRAPP: postemergence, direct seeded rice; for GR50, BRAPP: Growth reduction of 50% of plant growth; for GR50, BRAPP / GR80, BRAPP: probit analysis; for GR80, BRAPP: Growth reduction of 80% of plant growth
Text: as §1, §2, §3, §4

[3] = tested on: SCPJU: Japanese bulrush, Schoenoplectus juncoides; details: for Visual Growth Reduction (%) 21 Days After Application, SCPJU: postemergence, direct seeded rice; for GR50, SCPJU: Growth reduction of 50% of plant growth; for GR50, SCPJU / GR80, SCPJU: probit analysis; for GR80, SCPJU: Growth reduction of 80% of plant growth
Text: as §1, §2, §3, §4

[4] = tested on: SEBEX: hemp sesbania, Sesbania exaltata; details: for Visual Growth Reduction (%) 21 Days After Application, SEBEX: postemergence, direct seeded rice; for GR50, SEBEX: Growth reduction of 50% of plant growth; for GR50, SEBEX / GR80, SEBEX: probit analysis; for GR80, SEBEX: Growth reduction of 80% of plant growth
Text: as §1, §2, §3, §4

ORYSS: Oryza sativa = details: for Visual Growth Reduction (%) 21 Days After Application, ORYSS: postemergence, direct seeded rice; for GR20, ORYSS: Growth reduction of 20% of plant growth, probit analysis
Text: as §1, §2, §3, §4

[5] = tested on: ECHSS: including barnyardgrass, (Echinochloa crus-galli), junglerice, (Echinochloa colonum); details: for Visual Growth Reduction (%) 21 Days After Application, ECHSS: postemergence, direct seeded rice; for GR50, ECHSS: Growth reduction of 50% of plant growth; for GR50, ECHSS / GR80, ECHSS: probit analysis; for GR80, ECHSS: Growth reduction of 80% of plant growth
Text: as §1, §2, §3, §4

[6] = tested on: LEFSS: sprangletop including Chinese sprangletop (Leptochloa chinensis), green sprangletop (Leptochloa dubia); details: for Visual Growth Reduction (%) 21 Days After Application, LEFSS: postemergence, direct seeded rice; for GR50, LEFSS: Growth reduction of 50% of plant growth; for GR50, LEFSS / GR80, LEFSS: probit analysis; for GR80, LEFSS: Growth reduction of 80% of plant growth
Text: as §1, §2, §3, §4

Row | SMILES | Visual Growth Reduction (%) 21 Days After Application, CYPSS ([1]; 35 g ai/ha) | Visual Growth Reduction (%) 21 Days After Application, CYPSS ([1]; 70 g ai/ha) | GR50, CYPSS [1] [g ai/ha] | GR80, CYPSS [1] [g ai/ha] | Visual Growth Reduction (%) 21 Days After Application, BRAPP ([2]; 35 g ai/ha) | Visual Growth Reduction (%) 21 Days After Application, BRAPP ([2]; 70 g ai/ha) | GR50, BRAPP [2] [g ai/ha] | GR80, BRAPP [2] [g ai/ha] | Visual Growth Reduction (%) 21 Days After Application, SCPJU ([3]; 35 g ai/ha) | Visual Growth Reduction (%) 21 Days After Application, SCPJU ([3]; 70 g ai/ha) | GR50, SCPJU [3] [g ai/ha] | GR80, SCPJU [3] [g ai/ha] | Visual Growth Reduction (%) 21 Days After Application, SEBEX ([4]; 35 g ai/ha) | Visual Growth Reduction (%) 21 Days After Application, SEBEX ([4]; 70 g ai/ha) | GR50, SEBEX [4] [g ai/ha] | GR80, SEBEX [4] [g ai/ha] | Visual Growth Reduction (%) 21 Days After Application, ORYSS (ORYSS: Oryza sativa; 35 g ai/ha) | Visual Growth Reduction (%) 21 Days After Application, ORYSS (ORYSS: Oryza sativa; 70 g ai/ha) | GR20, ORYSS (ORYSS: Oryza sativa) [g ai/ha] | Visual Growth Reduction (%) 21 Days After Application, ECHSS ([5]; 35 g ai/ha) | further results
1 | COC(=O)c1nc(-c2ccc(C(F)(F)F)nc2)c(F)c(N)c1Cl [Compound 59, methyl 4-amino-5-chloro-3-fluoro-6′-(trifluoromethyl)-[2,3′-bipyridine]-6-carboxylate] | A (95-100) | A (95-100) | 2 | 3 | B (85-94) | B (85-94) | 3 | 16 | A (95-100) | A (95-100) | <17.5 | <17.5 | A (95-100) | A (95-100) | 1 | 1 | E (45-59) | E (45-59) | 18 | B (85-94) | Visual Growth Reduction (%) 21 Days After Application, ECHSS ([5]; 70 g ai/ha): B (85-94); GR50, ECHSS [5]: 3 g ai/ha; GR80, ECHSS [5]: 15 g ai/ha; Visual Growth Reduction (%) 21 Days After Application, LEFSS ([6]; 35 g ai/ha): D (60-74); Visual Growth Reduction (%) 21 Days After Application, LEFSS ([6]; 70 g ai/ha): B (85-94); GR50, LEFSS [6]: 27 g ai/ha; GR80, LEFSS [6]: 48 g ai/ha
2 | COC(=O)c1nc(-c2ccc(C(F)(F)F)nc2)c(Cl)c(N)c1Cl [Compound 83] | A (95-100) | A (95-100) | 2 | 3 | A (95-100) | A (95-100) | 6 | 16 | A (95-100) | A (95-100) | <17.5 | <17.5 | A (95-100) | A (95-100) | 2 | 5 | E (45-59) | F (30-44) | 23 | A (95-100) | Visual Growth Reduction (%) 21 Days After Application, ECHSS ([5]; 70 g ai/ha): A (95-100); GR50, ECHSS [5]: 3 g ai/ha; GR80, ECHSS [5]: 9 g ai/ha; Visual Growth Reduction (%) 21 Days After Application, LEFSS ([6]; 35 g ai/ha): B (85-94); Visual Growth Reduction (%) 21 Days After Application, LEFSS ([6]; 70 g ai/ha): D (60-74); GR50, LEFSS [6]: 27 g ai/ha; GR80, LEFSS [6]: 53 g ai/ha
